This is an account of results in ChEMBL document CHEMBL1131152, “In vitro and in vivo activities of oligodeoxynucleotide-based thrombin inhibitors containing neutral formacetal linkages” (J Med Chem, 1998).

For the assay, the target named is Prothrombin (Homo sapiens) (UniProt P00734). The assay can be described thus: Relative prothrombin time was determined as the activity of the test ODN (oligodeoxynucleotide) relative to that of GS-522.

Molecules are shown by their SMILES.

Turning to `Cc1cn([C@H]2C[C@H](OCOC[C@H]3O[C@@H](n4cnc5c(=O)nc(N)[nH]c54)C[C@@H]3OP(=O)(O)OC[C@H]3O[C@@H](n4cnc5c(=O)[nH]c(=N)[nH]c54)C[C@@H]3OP(=O)(O)OC[C@H]3O[C@@H](n4cc(C)c(=O)[nH]c4=O)C[C@@H]3OP(=O)(O)OC[C@H]3O[C@@H](n4cc(C)c(=O)[nH]c4=O)C[C@@H]3O[PH](O)(O)OC[C@H]3O[C@@H](n4cnc5c(=O)[nH]c(=N)[nH]c54)C[C@@H]3OP(=O)(O)OC[C@H]3O[C@@H](n4cnc5c(=O)nc(N)[nH]c54)C[C@@H]3O)[C@@H](COP(=O)(O)O[C@H]3C[C@H](n4cnc5c(=O)[nH]c(=N)[nH]c54)O[C@@H]3COCO[C@H]3C[C@H](n4cc(C)c(=O)[nH]c4=O)O[C@@H]3COP(=O)(O)O[C@H]3C[C@H](n4cnc5c(=O)[nH]c(=N)[nH]c54)O[C@@H]3COP(=O)(O)O[C@H]3C[C@H](n4cnc5c(=O)nc(N)[nH]c54)O[C@@H]3COP(=O)(O)O[C@H]3C[C@H](n4cc(C)c(=O)[nH]c4=O)O[C@@H]3COP(=O)(O)O[C@H]3C[C@H](n4cc(C)c(=O)[nH]c4=O)O[C@@H]3COP(=O)(O)O[C@H]3C[C@H](n4cnc5c(=O)nc(N)[nH]c54)O[C@@H]3COP(=O)(O)O[C@H]3C[C@H](n4cnc5c(=O)nc(N)[nH]c54)O[C@@H]3COP(=O)(O)O)O2)c(=O)[nH]c1=O`, the Relative PT was 0.7.
The result for `Cc1cn([C@H]2C[C@H](OCOC[C@H]3O[C@@H](n4cnc5c(=O)nc(N)[nH]c54)C[C@@H]3OP(=O)(O)OC[C@H]3O[C@@H](n4cnc5c(=O)[nH]c(=N)[nH]c54)C[C@@H]3OP(=O)(O)OC[C@H]3O[C@@H](n4cc(C)c(=O)[nH]c4=O)C[C@@H]3OP(=O)(O)OC[C@H]3O[C@@H](n4cnc5c(=O)[nH]c(=N)[nH]c54)C[C@@H]3OP(=O)(O)OC[C@H]3O[C@@H](n4cc(C)c(=O)[nH]c4=O)C[C@@H]3OP(=O)(O)OC[C@H]3O[C@@H](n4cnc5c(=O)nc(N)[nH]c54)C[C@@H]3OP(=O)(O)OC[C@H]3O[C@@H](n4cnc5c(=O)[nH]c(=N)[nH]c54)C[C@@H]3OP(=O)(O)OC[C@H]3O[C@@H](n4cc(C)c(=O)[nH]c4=O)C[C@@H]3OP(=O)(O)OC[C@H]3O[C@@H](n4cc(C)c(=O)[nH]c4=O)C[C@@H]3OCOC[C@H]3O[C@@H](n4cnc5c(=O)[nH]c(=N)[nH]c54)C[C@@H]3OP(=O)(O)OC[C@H]3O[C@@H](n4cnc5c(=O)nc(N)[nH]c54)C[C@@H]3O)[C@@H](COP(=O)(O)O[C@H]3C[C@H](n4cc(C)c(=O)[nH]c4=O)O[C@@H]3COP(=O)(O)O[C@H]3C[C@H](n4cnc5c(=O)nc(N)[nH]c54)O[C@@H]3COP(=O)(O)O[C@H]3C[C@H](n4cnc5c(=O)[nH]c(=N)[nH]c54)O[C@@H]3COP(=O)(O)O)O2)c(=O)[nH]c1=O` reads 0.3; that for `Cc1cn([C@H]2C[C@H](OCOC[C@H]3O[C@@H](n4cnc5c(=O)[nH]c(=N)[nH]c54)C[C@@H]3OP(=O)(O)OC[C@H]3O[C@@H](n4cnc5c(=O)nc(N)[nH]c54)C[C@@H]3O)[C@@H](COP(=O)(O)O[C@H]3C[C@H](n4cc(C)c(=O)[nH]c4=O)O[C@@H]3COP(=O)(O)O[C@H]3C[C@H](n4cnc5c(=O)[nH]c(=N)[nH]c54)O[C@@H]3COP(=O)(O)O[C@H]3C[C@H](n4cnc5c(=O)nc(N)[nH]c54)O[C@@H]3COCO[C@H]3C[C@H](n4cc(C)c(=O)[nH]c4=O)O[C@@H]3COP(=O)(O)O[C@H]3C[C@H](n4cnc5c(=O)[nH]c(=N)[nH]c54)O[C@@H]3COP(=O)(O)O[C@H]3C[C@H](n4cc(C)c(=O)[nH]c4=O)O[C@@H]3COP(=O)(O)O[C@H]3C[C@H](n4cnc5c(=O)[nH]c(=N)[nH]c54)O[C@@H]3COP(=O)(O)O[C@H]3C[C@H](n4cnc5c(=O)nc(N)[nH]c54)O[C@@H]3COP(=O)(O)O[C@H]3C[C@H](n4cc(C)c(=O)[nH]c4=O)O[C@@H]3COP(=O)(O)O[C@H]3C[C@H](n4cc(C)c(=O)[nH]c4=O)O[C@@H]3COP(=O)(O)O[C@H]3C[C@H](n4cnc5c(=O)nc(N)[nH]c54)O[C@@H]3COP(=O)(O)O[C@H]3C[C@H](n4cnc5c(=O)[nH]c(=N)[nH]c54)O[C@@H]3COP(=O)(O)O)O2)c(=O)[nH]c1=O`, 0.4; that for `Cc1cn([C@H]2C[C@H](OCOC[C@H]3O[C@@H](n4cnc5c(=O)[nH]c(=N)[nH]c54)C[C@@H]3OP(=O)(O)OC[C@H]3O[C@@H](n4cnc5c(=O)nc(N)[nH]c54)C[C@@H]3O)[C@@H](COP(=O)(O)O[C@H]3C[C@H](n4cc(C)c(=O)[nH]c4=O)O[C@@H]3COP(=O)(O)O[C@H]3C[C@H](n4cnc5c(=O)[nH]c(=N)[nH]c54)O[C@@H]3COP(=O)(O)O[C@H]3C[C@H](n4cnc5c(=O)nc(N)[nH]c54)O[C@@H]3COP(=O)(O)O[C@H]3C[C@H](n4cc(C)c(=O)[nH]c4=O)O[C@@H]3COP(=O)(O)O[C@H]3C[C@H](n4cnc5c(=O)[nH]c(=N)[nH]c54)O[C@@H]3COP(=O)(O)O[C@H]3C[C@H](n4cc(C)c(=O)[nH]c4=O)O[C@@H]3COP(=O)(O)O[C@H]3C[C@H](n4cnc5c(=O)[nH]c(=N)[nH]c54)O[C@@H]3COP(=O)(O)O[C@H]3C[C@H](n4cnc5c(=O)nc(N)[nH]c54)O[C@@H]3COP(=O)(O)O[C@H]3C[C@H](n4cc(C)c(=O)[nH]c4=O)O[C@@H]3COP(=O)(O)O[C@H]3C[C@H](n4cc(C)c(=O)[nH]c4=O)O[C@@H]3COP(=O)(O)O[C@H]3C[C@H](n4cnc5c(=O)nc(N)[nH]c54)O[C@@H]3COP(=O)(O)O[C@H]3C[C@H](n4cnc5c(=O)nc(N)[nH]c54)O[C@@H]3COP(=O)(O)O)O2)c(=O)[nH]c1=O`, 0.6.
The result for `Cc1cn([C@H]2C[C@H](OCOC[C@H]3O[C@@H](n4cnc5c(=O)nc(N)[nH]c54)C[C@@H]3OP(=O)(O)OC[C@H]3O[C@@H](n4cnc5c(=O)[nH]c(=N)[nH]c54)C[C@@H]3OP(=O)(O)OC[C@H]3O[C@@H](n4cc(C)c(=O)[nH]c4=O)C[C@@H]3OP(=O)(O)OC[C@H]3O[C@@H](n4cc(C)c(=O)[nH]c4=O)C[C@@H]3OP(=O)(O)OC[C@H]3O[C@@H](n4cnc5c(=O)[nH]c(=N)[nH]c54)C[C@@H]3OP(=O)(O)OC[C@H]3O[C@@H](n4cnc5c(=O)nc(N)[nH]c54)C[C@@H]3O)[C@@H](COP(=O)(O)O[C@H]3C[C@H](n4cnc5c(=O)[nH]c(=N)[nH]c54)O[C@@H]3COP(=O)(O)O[C@H]3C[C@H](n4cc(C)c(=O)[nH]c4=O)O[C@@H]3COP(=O)(O)O[C@H]3C[C@H](n4cnc5c(=O)[nH]c(=N)[nH]c54)O[C@@H]3COP(=O)(O)O[C@H]3C[C@H](n4cnc5c(=O)nc(N)[nH]c54)O[C@@H]3COP(=O)(O)O[C@H]3C[C@H](n4cc(C)c(=O)[nH]c4=O)O[C@@H]3COP(=O)(O)O[C@H]3C[C@H](n4cc(C)c(=O)[nH]c4=O)O[C@@H]3COP(=O)(O)O[C@H]3C[C@H](n4cnc5c(=O)nc(N)[nH]c54)O[C@@H]3COP(=O)(O)O[C@H]3C[C@H](n4cnc5c(=O)nc(N)[nH]c54)O[C@@H]3COP(=O)(O)O)O2)c(=O)[nH]c1=O` reads 1.1.
In the case of `Cc1cn([C@H]2C[C@H](OP(=O)(O)OC[C@H]3O[C@@H](n4cnc5c(=O)nc(N)[nH]c54)C[C@@H]3OP(=O)(O)OC[C@H]3O[C@@H](n4cnc5c(=O)[nH]c(=N)[nH]c54)C[C@@H]3OP(=O)(O)OC[C@H]3O[C@@H](n4cc(C)c(=O)[nH]c4=O)C[C@@H]3OP(=O)(O)OC[C@H]3O[C@@H](n4cnc5c(=O)nc(N)[nH]c54)C[C@@H]3OP(=O)(O)OC[C@H]3O[C@@H](n4cc(C)c(=O)[nH]c4=O)C[C@@H]3OP(=O)(O)OC[C@H]3O[C@@H](n4cnc5c(=O)nc(N)[nH]c54)C[C@@H]3OP(=O)(O)OC[C@H]3O[C@@H](n4cnc5c(=O)[nH]c(=N)[nH]c54)C[C@@H]3OP(=O)(O)OC[C@H]3O[C@@H](n4cc(C)c(=O)[nH]c4=O)C[C@@H]3OP(=O)(O)OC[C@H]3O[C@@H](n4cc(C)c(=O)[nH]c4=O)C[C@@H]3OP(=O)(O)OC[C@H]3O[C@@H](n4cnc5c(=O)[nH]c(=N)[nH]c54)C[C@@H]3OCOC[C@H]3O[C@@H](n4cnc5c(=O)nc(N)[nH]c54)C[C@@H]3O)[C@@H](COP(=O)(O)O[C@H]3C[C@H](n4cc(C)c(=O)[nH]c4=O)O[C@@H]3COP(=O)(O)O[C@H]3C[C@H](n4cnc5c(=O)[nH]c(=N)[nH]c54)O[C@@H]3COP(=O)(O)O[C@H]3C[C@H](n4cnc5c(=O)nc(N)[nH]c54)O[C@@H]3COP(=O)(O)O)O2)c(=O)[nH]c1=O`, the Relative PT was found to be 0.8.
The result for `Cc1cn([C@H]2C[C@H](OCOC[C@H]3O[C@@H](n4cnc5c(=O)nc(N)[nH]c54)C[C@@H]3OP(=O)(O)OC[C@H]3O[C@@H](n4cnc5c(=O)[nH]c(=N)[nH]c54)C[C@@H]3OP(=O)(O)OC[C@H]3O[C@@H](n4cc(C)c(=O)[nH]c4=O)C[C@@H]3OCOC[C@H]3O[C@@H](n4cc(C)c(=O)[nH]c4=O)C[C@@H]3OP(=O)(O)OC[C@H]3O[C@@H](n4cnc5c(=O)[nH]c(=N)[nH]c54)C[C@@H]3OP(=O)(O)OC[C@H]3O[C@@H](n4cnc5c(=O)nc(N)[nH]c54)C[C@@H]3O)[C@@H](COP(=O)(O)O[C@H]3C[C@H](n4cnc5c(O)nc(=N)[nH]c54)O[C@@H]3COP(=O)(O)O[C@H]3C[C@H](n4cc(C)c(=O)[nH]c4=O)O[C@@H]3COP(=O)(O)O[C@H]3C[C@H](n4cnc5c(=O)[nH]c(=N)[nH]c54)O[C@@H]3COP(=O)(O)O[C@H]3C[C@H](n4cnc5c(=O)nc(N)[nH]c54)O[C@@H]3COP(=O)(O)O[C@H]3C[C@H](n4cc(C)c(=O)[nH]c4=O)O[C@@H]3COCO[C@H]3C[C@H](n4cc(C)c(=O)[nH]c4=O)O[C@@H]3COP(=O)(O)O[C@H]3C[C@H](n4cnc5c(=O)nc(N)[nH]c54)O[C@@H]3COP(=O)(O)O[C@H]3C[C@H](n4cnc5c(=O)[nH]c(=N)[nH]c54)O[C@@H]3COP(=O)(O)O)O2)c(=O)[nH]c1=O` reads 1.1.
